In patent publication US8912213B2, “Synthesis and use of dual tyrosyl-DNA phosphodiesterase I (TDP1)- topoisomerase I (TOP1) inhibitors” (Purdue Research Foundation, priority 2012, dated 2014):
Like-named read-outs stand apart in the source and are kept apart here.

What was measured:
SF-539 = experiment: NCI screen cytotoxicity, CNS SF-539; type: cell-based; conditions: Homo sapiens, read-out: Cytotoxicity (GI50 in μM) CNS SF-539; 50% growth inhibition
Tdp1 [1] = molecular target: T1, Tdp1 (Homo sapiens (Human), UniProt Q9NUW8); experiment: Gel-based assay measuring the inhibition of recombinant Tdp1; type: biochemical;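 further: 5′-32P-labeled single-stranded DNA with 3′-phosphotyrosine incubated with 5 pM enzyme for 15 min at room temperature, inhibition seen as loss of 3′-phosphate product band by densitometry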
T1 sequence (Q9NUW8 whole entry): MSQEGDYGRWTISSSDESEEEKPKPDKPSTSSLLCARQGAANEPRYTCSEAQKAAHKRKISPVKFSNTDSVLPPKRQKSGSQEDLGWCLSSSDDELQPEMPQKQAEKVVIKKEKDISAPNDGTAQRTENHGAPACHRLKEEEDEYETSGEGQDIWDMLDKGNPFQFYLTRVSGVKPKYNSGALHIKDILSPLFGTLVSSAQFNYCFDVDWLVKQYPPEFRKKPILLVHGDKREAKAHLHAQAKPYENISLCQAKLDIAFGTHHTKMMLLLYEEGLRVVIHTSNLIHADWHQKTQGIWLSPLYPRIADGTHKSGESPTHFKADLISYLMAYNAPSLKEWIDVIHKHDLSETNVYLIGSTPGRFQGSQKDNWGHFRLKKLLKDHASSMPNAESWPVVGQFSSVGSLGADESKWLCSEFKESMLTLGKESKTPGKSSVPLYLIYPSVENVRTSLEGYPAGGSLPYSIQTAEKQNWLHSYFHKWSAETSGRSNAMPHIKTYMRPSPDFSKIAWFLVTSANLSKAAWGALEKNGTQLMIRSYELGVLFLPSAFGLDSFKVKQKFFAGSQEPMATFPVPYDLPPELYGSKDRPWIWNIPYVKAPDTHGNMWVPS
Procedure: Tdp1 inhibitory activity was measured by the drug's ability to inhibit the hydrolysis of the phosphodiester linkage between tyrosine and the 3′-end of the DNA substrate, and to prevent the generation of an oligonucleotide with a free 3′-phosphate (N14P). Therefore, the disappearance of the gel band for N14P indicated Tdp1 inhibition.
Gel-Based Assay Measuring the Inhibition of Recombinant Tdp1. A 5′-[^32P]-labeled single-stranded DNA oligonucleotide containing a 3′-phosphotyrosine (N14Y) was generated as described by Dexheimer et al. The DNA substrate was then incubated with 5 pM recombinant Tdp1 in the absence or presence of inhibitor for 15 min at room temperature in a buffer containing 50 mM Tris HCl, pH 7.5, 80 mM KCl, 2 mM EDTA, 1 mM DTT, 40 μg/ml BSA and 0.01% Tween-20. […] Gel images were scanned using a Typhoon 8600 (GE Healthcare) and densitometric analyses were performed using the ImageQuant software (GE Healthcare).

DU-145 = experiment: NCI screen cytotoxicity, prostate DU-145; type: cell-based; conditions: Homo sapiens, DU-145, read-out: Cytotoxicity (GI50 in μM) prostate DU-145; 50% growth inhibition
UACC-62 = experiment: NCI screen cytotoxicity, melanoma UACC-62; type: cell-based; conditions: Homo sapiens, 50% growth inhibition
[2] = test system: all human cancer cell lines successfully tested; experiment: NCI screen, mean graph midpoint (MGM) for growth inhibition; conditions: Homo sapiens
MDA-MB-435 = experiment: NCI screen cytotoxicity, breast MDA-MB-435; type: cell-based; conditions: Homo sapiens, MDA-MB-435, read-out: Cytotoxicity (GI50 in μM) breast MDA-MB-435; 50% growth inhibition
Human recombinant Top1 = Human recombinant Top1 (Homo sapiens (Human), UniProt P11387); experiment: Topoisomerase I-mediated DNA cleavage reactions; type: biochemical; conditions: for Top1 (compound-induced DNA cleavage, semiquantitative scale): series (B), relative to 1 μM camptothecin (90) or MJ-III-65 (91); for Top1 inhibition (semiquantitative scale): series (A), relative to 1 μM camptothecin;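 on all read-outs here: 3′-end radiolabeled DNA substrate (about 2 nM) incubated with recombinant Top1 and compound for 20 min at 25 °C, cleavage products resolved by denaturing PAGE and phosphoimaging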
Chain of Human recombinant Top1 (P11387 whole entry): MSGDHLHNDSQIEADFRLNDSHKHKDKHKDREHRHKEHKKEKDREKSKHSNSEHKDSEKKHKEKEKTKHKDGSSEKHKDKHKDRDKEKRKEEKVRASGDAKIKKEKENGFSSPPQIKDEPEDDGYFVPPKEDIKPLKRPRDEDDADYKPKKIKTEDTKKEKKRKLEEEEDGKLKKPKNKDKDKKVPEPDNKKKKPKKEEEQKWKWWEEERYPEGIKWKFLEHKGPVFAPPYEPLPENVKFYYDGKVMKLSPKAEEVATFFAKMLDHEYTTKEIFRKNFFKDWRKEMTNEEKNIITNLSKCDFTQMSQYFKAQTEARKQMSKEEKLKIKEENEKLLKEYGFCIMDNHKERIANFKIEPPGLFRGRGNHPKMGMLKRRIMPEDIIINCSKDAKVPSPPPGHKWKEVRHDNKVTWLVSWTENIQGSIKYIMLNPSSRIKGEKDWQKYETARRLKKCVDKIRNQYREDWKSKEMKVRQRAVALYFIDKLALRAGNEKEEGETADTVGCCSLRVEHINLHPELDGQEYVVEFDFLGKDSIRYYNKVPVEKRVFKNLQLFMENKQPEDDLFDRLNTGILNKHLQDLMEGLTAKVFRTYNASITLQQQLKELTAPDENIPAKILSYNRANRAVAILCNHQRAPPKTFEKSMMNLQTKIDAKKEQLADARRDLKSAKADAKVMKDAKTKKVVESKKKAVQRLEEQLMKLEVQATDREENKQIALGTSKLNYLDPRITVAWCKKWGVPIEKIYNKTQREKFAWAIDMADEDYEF
Procedure: Additionally, all indenoisoquinoline sulfonates and sulfonamides were tested for Top1 cleavage complex poisoning in a Top1-mediated DNA cleavage assay.
Topoisomerase I-Mediated DNA Cleavage Reactions. Human recombinant Top1 was purified from baculovirus as previously described. DNA cleavage reactions were prepared as previously reported with the exception of the DNA substrate. […] Unincorporated [^32P]dGTP was removed using mini Quick Spin DNA columns (Roche, Indianapolis, Ind.), and the eluate containing the 3′-end-labeled DNA substrate was collected. Approximately 2 nM radiolabeled DNA substrate was incubated with recombinant Top1 in 20 μL of reaction buffer [10 mM Tris-HCl (pH 7.5), 50 mM KCl, 5 mM MgCl2, 0.1 mM EDTA, and 15 μg/mL BSA] at 25° C. for 20 min in the presence of various concentrations of compounds. The reactions were terminated by adding SDS (0.5% final concentration) followed by the addition of two volumes of loading dye (80% formamide, 10 mM sodium hydroxide, 1 mM sodium EDTA, 0.1% xylene cyanol, and 0.1% bromphenol blue). Aliquots of each reaction mixture were subjected to 20% denaturing PAGE. Gels were dried and visualized by using a phosphoimager and ImageQuant software (Molecular Dynamics).
Topoisomerase I-Mediated DNA Cleavage Reactions. Top1 reactions were performed as recently described. […] The reactions were terminated by adding SDS (0.5% final concentration) followed by the addition of two volumes of loading dye (80% formamide, 10 mM sodium hydroxide, 1 mM sodium EDTA, 0.1% xylene cyanol, and 0.1% bromphenol blue). Reactions were subjected to 20% denaturing PAGE. Gels were dried and visualized by using a Typhoon 8600 and ImageQuant software (Molecular Dynamics).

HOP-62 = experiment: NCI screen cytotoxicity, lung HOP-62; type: cell-based; conditions: Homo sapiens, 50% growth inhibition
OVCAR-3 = experiment: NCI screen cytotoxicity, ovarian OVCAR-3; conditions: Homo sapiens, OVCAR-3, read-out: Cytotoxicity (GI50 in μM) ovarian OVCAR-3
SN12C = experiment: NCI screen cytotoxicity, renal SN12C; type: cell-based; conditions: Homo sapiens, 50% growth inhibition
HCT-116 = experiment: NCI screen cytotoxicity, colon HCT-116; type: cell-based; conditions: Homo sapiens, 50% growth inhibition
Tdp1 [3] = molecular target: T1, Tdp1; experiment: Surface plasmon resonance analysis; type: binding; conditions: immobilized Tdp1
Procedure: Surface Plasmon Resonance Analysis. Binding experiments were performed on a Biacore T100 instrument (GE, Piscataway N.J.). Tdp1 was amine coupled to a CM5 sensor chip (GE Healthcare, Piscataway N.J.). […] (EDC), N-hydroxysuccinimide (NHS) and ethanolamine were purchased from GE Heathcare, (Piscataway N.J.). Neutravidin was obtained from Pierce. In order to protect the amine groups within the active site from modification, Tdp1 was bound with a 14-base oligonucleotide before coupling to the surface. […] The CM5 chip surface was activated for 7 min. with 0.1 M NHS and 0.4 M EDC at a flow rate of 20 μL/min and Tdp1-oligonucleotide mixture was injected until approximately 4000 RU's was attached. Activated amine groups were quenched with an injection of 1 M solution of ethanolamine pH 8.0 for 7 min. Any bound oligonucleotide was removed by washing the surface with 1 M NaCl. A reference surface was prepared in the same manner without coupling of Tdp1. […] Following compound injections, the surface was regenerated with a 30 second injection 1 M NaCl, a 30 second injection of 50% DMSO (v/v) and a 30 second running buffer injection. Each cycle of compound injection was followed by buffer cycle for referencing purposes. A DMSO calibration curve was included to correct for refractive index mismatches between the running buffer and compound dilution series.
Surface Plasmon Resonance Analysis. […]

[4] = molecular target: endogenous human Tdp1 in whole cell extract (Homo sapiens (Human), UniProt Q9NUW8); experiment: Gel-based assay measuring the inhibition of endogenous human Tdp1 in whole cell extract; type: biochemical; conditions: human Tdp1 in whole cell extract (WCE)
Chain of endogenous human Tdp1 in whole cell extract (Q9NUW8 whole entry): as the sequence (Q9NUW8 whole entry) above
Procedure: Gel-Based Assay Measuring the Inhibition of Endogenous Human Tdp1 in Whole Cell Extract. 1×10^7 DT40 knockout cells for chicken Tdp1 and complemented with human Tdp1 were collected, washed and centrifuged. Cell pellet was then resuspended with 100 μL of CellLytic M Cell Lysis Reagent (SIGMA-Aldrich C2978). After 15 min, the lysate was centrifuged at a 12,000 g for 10 min and the supernatant was transferred to a new tube. Protein concentration was determined using a nanodrop spectrophotometer (Invitrogen) and the whole cell extract was stored at −80° C. […] Reactions were then treated similarly to the recombinant enzyme containing samples (see section above).
All compounds were first tested in gel based assays for Tdp1 inhibition using recombinant (rec.) human Tdp1 and only the active compounds were tested for human Tdp1 inhibition in whole cell extract (WCE). […] was included in all experiments as positive control.

Tdp1 [5] = molecular target: T1, Tdp1; conditions: known inhibitor; cited from earlier work

Row | SMILES | GI50 (SF-539) [µM] | IC50 (Tdp1 [1]; series (B), determined by quadruplicate, read-out: Tdp1 (μM) IC50) [µM] | GI50 (DU-145) [µM] | GI50 (UACC-62) [µM] | GI50 ([2]; read-out: MGM (μM)) [µM] | GI50 (MDA-MB-435) [µM] | Top1 (compound-induced DNA cleavage, semiquantitative scale) (Human recombinant Top1) | GI50 (HOP-62) [µM] | GI50 (OVCAR-3) [µM] | GI50 (SN12C) [µM] | GI50 (HCT-116) [µM] | binding to Tdp1 by surface plasmon resonance (Tdp1 [3]) | Top1 inhibition (semiquantitative scale) (Human recombinant Top1) | Tdp1 inhibitory activity (in words) (Tdp1 [1]) | IC50 (Tdp1 [1]; read-out: Tdp1 (μM) IC50) [µM] | IC50 (Tdp1 [1]) [µM] | GI50 ([2]; read-out: MGM GI50) [µM] | IC50 [4] [µM] | Tdp1 inhibition (in words) (Tdp1 [5])
1 | Cl.NCCCn1c2c(c3ccc(NCC(=O)O)cc3c1=O)C(=O)c1ccccc1-2 [Compound 43 of (B), 2-((6-(3-Aminopropyl)-5,11-dioxo-6,11-dihydro-5H-indeno[1,2-c]isoquinolin-3-yl)amino)acetic Acid Hydrochloride] | 1.79 | 5 ± 1.4 | 1.51 | 0.72 | 0.87 ± 0.014 | 1.14 | 0 | 0.65 | 1.6 | 0.49 | 0.33 | – | – | – | – | – | – | – | –
2 | Cl.NCCCn1c2c(c3ccccc3c1=O)C(=O)c1ccccc1-2 [Compound 70 of (A)] | – | – | – | – | – | – | – | – | – | – | – | direct binding | +++ (between 75% and 95% activity) | – | – | – | – | – | –
3 | CCOC(=O)CNc1ccc2c3c(n(CCCN)c(=O)c2c1)-c1ccccc1C3=O.Cl [Compound 40 of (B), Ethyl 2-[(6-(3-Aminopropyl)-5,11-dioxo-6,11-dihydro-5H-indeno[1,2-c]isoquinolin-3-yl)amino]acetate Hydrochloride] | 8.91 | – | 1.68 | 2.25 | 1.69 | 3.05 | – | 0.93 | 3.12 | 1.75 | 0.44 | – | – | active | 11 ± 5 | – | – | – | –
4 | NCCCn1c2c(c3ccc(N)cc3c1=O)C(=O)c1ccccc1-2 [Compound 62 of (B)] | 0.34 | – | 0.12 | 0.3 | 0.16 | 0.23 | – | 0.27 | 0.13 | 0.23 | 0.18 | – | – | – | – | – | – | – | –
5 | O=C1c2ccccc2-c2c1c1ccccc1c(=O)n2CCCNCCCNCCCn1c2c(c3ccccc3c1=O)C(=O)c1ccccc1-2 [Compound 145 of (A), Bis-1,3-{(5,6-dihydro-5,11-diketo-11 H-indeno[1,2-c]isoquinoline)-6-propyl-amino}propane Bis(trifluoroacetate)] | – | – | – | – | – | – | – | – | – | – | – | – | ++++ | – | – | 1.5 | 0.394 | 1.9 | –
6 | [O]=[V]([O-])([O-])[O-] [vanadate] | – | – | – | – | – | – | – | – | – | – | – | – | – | – | – | – | – | – | inhibition at millimolar concentrations
7 | COc1ccc2c(c1)-c1c(c3ccc([N+](=O)[O-])cc3c(=O)n1CCCN)C2=O.Cl [Compound 51 of (B), 6-(3-Aminopropyl)-5,6-dihydro-8-methoxy-3-nitro-5,11-dioxo-11H-indeno[1,2-c]isoquinoline Hydrochloride] | 0.61 | – | 0.18 | – | 0.17 ± 0.017 | 0.58 | ++ | – | 0.54 | 0.15 | 0.06 | – | – | – | 15 ± 3 | – | – | – | –
